Assay results: PMC9011347, “Small-Molecule Inhibitors Targeting Lipolysis in Human Adipocytes” (Journal of the American Chemical Society, 2022)

Test system: HepG2^control cells
Test: Seahorse cellular respiration (OCR)
Type: cell-based, human
Details: NG-497 40 μM
Excerpt: NG-497 could affect respiration by limiting the availability of FAs as an energy substrate or by off-target effects leading to mitochondrial dysfunction, which is a major mechanism of drug-induced toxicity.[47] To monitor on- and off-target effects of NG-497 on cellular respiration, we performed seahorse experiments using HepG2 cells endogenously expressing (HepG2^control) or lacking ATGL (HepG2^AKO). This method allows the measurement of basal respiration (BR), maximal respiration (MR), proton leak (PL), ATP production (ATPP), spare respiratory capacity (SRC), and nonmitochondrial oxygen consumption (NMOC) after successive addition of oligomycin (ATP-synthase inhibitor), carbonyl cyanide p-trifluoromethoxyphenylhydrazone (FCCP) (uncoupler), and antimycin/rotenone (electron transport chain inhibitors). The human hepatoma cell line HepG2 was selected as a model since it is frequently used to monitor drug-induced mitochondrial dysfunction.[48] Like most cancer cell lines, HepG2 cells rely on anaerobic glycolysis for ATP generation, implicating that inhibition of lipolysis has only minor effects on respiration.
(a) HepG2 cells were treated with NG-497 (40 μM) or DMSO as control and oxygen consumption rate (OCR) was determined in Seahorse growth medium supplemented with glucose (25 mM) using the SeaHorse XF96 extracellular flux analyzer. OCR was determined after subsequent addition of 1 μM Oligomycin (ATP-synthase inhibitor), 1 μM FCCP (uncoupler), and 1 μM antimycin/rotenone (electron transport chain inhibitors). (b) Statistical analysis of basal respiration (BR), maximal respiration (MR), proton leak (PL), ATP production (ATPP), spare respiratory capacity (SRC), and nonmitochondrial oxygen consumption (NMOC) of control and NG-497-treated cells. (c) Extracellular acidification rate (ECAR) and (d) OCR of HepG2 cells were determined in Seahorse growth medium supplemented with glucose (25 mM) or galactose (10 mM). (e) Determination of the ORC of HepG2 cells grown in medium supplemented with galactose (10 mM) and NG-497 (40 μM) or DMSO as control with (f) respective statistical analysis. (g) ATGL gene was inactivated in HepG2 cells using the CRISPR/Cas9 system. Growth of cells expressing (HepG2^control) or lacking functional ATGL (HepG2^AKO) was determined using a BioRad cell analyzer. ATGL expression was analyzed by Western blotting analysis using an anti-ATGL antibody and GAPDH as a loading control (inset). (h) Acylglycerol content of HepG2^control and HepG2^AKO cells was determined by a commercial kit (TG Infinity reagent, Thermo Fisher Scientific). (i) OCR of galactose-supplemented HepG2^AKO cells and (j) the respective statistical analysis. Data are presented as mean ± standard error of the mean (SEM). Statistical significance was determined via Student’s t test (*p < 0.05; **p < 0.01; ***p < 0.001) or ANOVA followed by Bonferroni post hoc test (^#p < 0.05; ^##p < 0.01; ^###p < 0.001). […]
Sanger sequencing. The resulting constructs were transfected into HepG2 cells using the Turbofect Reagent (#R0531, Thermo Fisher Scientific) according to the manufacturer’s instructions. Cells transfected with empty pSpCas9(BB)-2A-Puro V2.0 served as negative control. 24 h after transfection, puromycin was added at a concentration of 4 µg/ml to eliminate non-transfected cells.
48 h later, the remaining cells were singularized in 96-well plates by seeding 1 cell/well. After clonal expansion for three weeks, the resulting cell lines were screened for ATGL deletion by immunoblotting using an ATGL-specific antibody (#2138S, CST). gRNA_v1 construct was chosen for further analysis.
Determination of cellular acylglycerol content. Cells were harvested in buffer A, total lipids extracted with chloroform/methanol (2/1, v/v) for 1 h at RT on a top-over wheel, and phase separation was achieved by centrifugation at 2,000 x g for 10min at RT. The organic phase was collected, dried under a stream of nitrogen, and dissolved in 2% Triton X-100 by […]
sonication. […]

[1] = glucose medium, tendency, not significant

Structure (SMILES): CCOc1ccc(-c2cc(OC)cc(C(=O)OC(C)C)n2)cc1 [NG-497]
- change of basal OCR (BR) (galactose (10 mM) medium): −15%
- change of maximal respiration (MR) (galactose (10 mM) medium): −17%
- change of spare respiratory capacity (SRC) (galactose (10 mM) medium): −20%
- change of maximal respiration (MR) [1]: −11%
- change of spare respiratory capacity (SRC) [1]: −18%
- effects on respiration (OCR parameters) (medium with glucose (25 mM)): could not observe significant effects
